The first assay has as its target PDE9A (Homo sapiens (Human), UniProt O76083). Kind of assay: PDE9A inhibition, fluorescence polarization assay (IMAP-FP screening express kit). It counts as biochemical. Conditions: 10 μM of the compound. Here is the method:
The inhibitory activity of the representative compounds according to the present invention against phosphodiesterase 9A was tested based on the polarization assay (IMAP-FP screening express kit) provided by MDS (MDS Analytical Technologies, Sunyvale, CA, USA). As a buffer solution, a reaction solution (a reaction solution containing 0.01% Tween 20 provided by MDS was diluted 5 times, then 5 mM DTT is added) and a polarization detection solution (binding solution A and B provided by MDS were mixed at a ratio of 3:1 and IMAP binding reagent 1/600 was added) were prepared. 100 μM of the substrate (Fl-cGMP substrate; MDS) and 3.6 μg/ml of the enzyme PDE9A (ab54113; abcam) were prepared. 3.6 μg/ml PDE9A and 100 μM substrate were diluted to 20 ng/ml (final reaction concentration: 5 ng/ml) and 400 nM (final reaction concentration: 100 nM), respectively. The buffer solution used for all dilution and preparation processes was 1× reaction solution with 1 mM DTT added, and the polarization detection solution was used to induce polarization at the end.
The prepared samples were dispensed on black microplates (Multiwell 384 well plates, #3573, Corning Life Sciences, Lowell, MA, USA) using a 16-channel pipette (multi 16-channel, Finnpipette, Thermo Scientific, Essex, UK). The total reaction volume per well is 20 μl. At this time, 10 μl of 2% DMSO, 5 μl of substrate solution, and 5 μl of reaction solution were used as a negative control, and 10 μl of 2% DMSO, 5 μl of substrate solution, and 5 μl of PDE9A solution were used as a positive control. As the experimental group, 10 μl of the compound prepared in Example, 5 μl of the substrate solution, and 5 μl of the PDE9A solution were used. After pretreatment between the compound and the enzyme was performed for about 10 minutes before the enzyme-substrate reaction, 5 μl of cGMP was added to induce the enzyme reaction. During the reaction, each compound, enzyme, and substrate occupied 50%, 25%, and 25% of the total volume, respectively, and they were prepared at high concentrations of 2, 4, and 4 times, respectively, immediately before addition. After the enzymatic reaction, it was shaken lightly for 1 minute and the enzyme reaction was induced at room temperature for 1 hour. Then, 60 μl of a polarization detection solution prepared in advance was added to induce polarization.
Nanoparticles composed of trivalent metal ions are mixed in the fluorescence detection solution, which combines with phosphoric acid expose by enzymatic reaction to increase the molecular weight and induce polarization. After leaving for 2 hours at room temperature, the polarization (Fluorescence Polarization, FP) value was measured using a multilabel counter (Envision, PerkinElmer, Turku, Finland) (emission wavelength: P-535 nm, S-535 nm, excitation wavelength: 480 nm), and the result was expressed as an IC50 value, which is the concentration of the compound that inhibited PDE9A by 50% in vitro (Table 2).
A general note: In fluorescence polarisation assays a small probe gives low polarisation when free and higher when bound to something large.
Chain of PDE9A (O76083 whole entry): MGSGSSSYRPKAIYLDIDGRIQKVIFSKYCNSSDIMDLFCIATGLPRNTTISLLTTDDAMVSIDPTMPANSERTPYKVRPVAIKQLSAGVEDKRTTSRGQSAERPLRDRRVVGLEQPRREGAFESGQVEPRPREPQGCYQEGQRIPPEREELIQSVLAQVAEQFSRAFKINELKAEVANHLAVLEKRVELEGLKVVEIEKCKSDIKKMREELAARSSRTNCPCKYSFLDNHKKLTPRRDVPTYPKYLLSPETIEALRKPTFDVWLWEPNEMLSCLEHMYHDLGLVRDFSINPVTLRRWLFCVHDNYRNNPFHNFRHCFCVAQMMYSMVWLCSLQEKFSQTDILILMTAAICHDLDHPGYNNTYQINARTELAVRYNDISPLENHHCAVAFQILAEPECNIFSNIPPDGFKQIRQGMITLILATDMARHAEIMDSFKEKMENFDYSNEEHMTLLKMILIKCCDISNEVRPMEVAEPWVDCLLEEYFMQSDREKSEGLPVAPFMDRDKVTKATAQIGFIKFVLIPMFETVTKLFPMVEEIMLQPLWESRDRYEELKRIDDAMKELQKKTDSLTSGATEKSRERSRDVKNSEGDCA
A word on the inhibition: it is the relative decrease from the control value, in per cent. `O=c1[nH]c(SCc2nc3cc(-c4ccccc4)ccc3o2)nc2c1cnn2-c1ccccc1` [Example 25, 1-phenyl-6-(((5-phenylbenzo[d]oxazol-2-yl)methyl)thio)-1,5-dihydro-4H-pyrazolo[3,4-d]pyrimidin-4-one] yielded an inhibition at 10 µM of 10.3%. In turn, `O=c1[nH]c(SCc2nc3ccc([N+](=O)[O-])cc3o2)nc2c1cnn2-c1ccccc1` [Example 28, 6-(((6-nitrobenzo[d]oxazol-2-yl)methyl)thio)-1-phenyl-1,5-dihydro-4H-pyrazolol[3,4-d]pyrimidin-4-one] gave an inhibition at 10 µM of 51.5%.

The assay is the same for the next values; noted with them: Fl-cGMP substrate 100 nM, PDE9A 5 ng/ml, 1 hour at room temperature.
One may read the IC50 as the concentration needed to halve the response being measured. Read a low IC50 as greater potency. As to `O=c1[nH]c(SCc2nc3ccccc3o2)nc2c1cnn2C1CCOCC1` [Example 1, 6-((benzo[d]oxazol-2-ylmethyl)thio)-1-(tetrahydro-2H-pyran-4-yl)-1,5-dihydro-4H-pyrazolo[3,4-d]pyrimidin-4-one], the IC50 was determined as 5 nM. The compound `O=c1[nH]c(SCc2nc3ccccc3o2)nc2c1cnn2-c1ccccc1` [Example 2, 6-((benzo[d]oxazol-2-ylmethyl)thio)-1-phenyl-1,5-dihydro-4H-pyrazolo[3,4-d]pyrimidin-4-one] gave an IC50 of 49 nM.

Turning to `Cc1ccc2oc(CSc3nc4c(cnn4-c4ccccc4)c(=O)[nH]3)nc2c1` [Example 3, 6-(((5-methylbenzo[d]oxazol-2-yl)methyl)thio)-1-phenyl-1,5-dihydro-4H-pyrazolo[3,4-d]pyrimidin-4-one], half-maximal inhibition (IC50) required 81 nM. Consider `O=c1[nH]c(SCc2nc3cc(F)ccc3o2)nc2c1cnn2-c1ccccc1` [Example 4, 6-(((5-fluorobenzo[d]oxazol-2-yl)methyl)thio)-1-phenyl-1,5-dihydro-4H-pyrazolo[3,4-d]pyrimidin-4-one], for which the IC50 was found to be 83 nM. Compound `Cc1ccc2nc(CSc3nc4c(cnn4-c4ccccc4)c(=O)[nH]3)oc2c1` [Example 5, 6-(((6-methylbenzo[d]oxazol-2-yl)methyl)thio)-1-phenyl-1,5-dihydro-4H-pyrazolol[3,4-d]pyrimidin-4-one] yielded an IC50 of 49 nM. Take `O=c1[nH]c(SCc2nc3cc(Cl)ccc3o2)nc2c1cnn2-c1ccccc1` [Example 6, 6-(((5-chlorobenzo[d]oxazol-2-yl)methyl)thio)-1-phenyl-1,5-dihydro-4H-pyrazolo[3,4-d]pyrimidin-4-one]: half-maximal inhibition (IC50) was put at 190 nM. The same measure, in the same setting: then `O=c1[nH]c(SCc2nc3cc(Br)ccc3o2)nc2c1cnn2-c1ccccc1` [Example 7, 6-(((5-bromobenzo[d]oxazol-2-yl)methyl)thio)-1-phenyl-1,5-dihydro-4H-pyrazolo[3,4-d]pyrimidin-4-one], with 100 nM. `O=c1[nH]c(SCc2nc3ccccc3o2)nc2c1cnn2C1CCC(F)(F)CC1` [Example 8, 6-((benzo[d]oxazol-2-ylmethyl)thio)-1-(4,4-difluorocyclohexyl)-1,5-dihydro-4H-pyrazolo[3,4-d]pyrimidin-4-one] registered an IC50 of 5 nM. On the same count and under the same terms, the same measure for `O=c1[nH]c(SCc2nc3ccccc3o2)nc2c1cnn2C1CCSCC1` [Example 9, 6-((benzo[d]oxazol-2-ylmethyl)thio)-1-(tetrahydro-2H-thiopyran-4-yl)-1,5-dihydro-4H-pyrazolo[3,4-d]pyrimidin-4-one]: 6 nM; for `O=c1[nH]c(SCc2nc3ccccc3o2)nc2c1cnn2C1CC1` [Example 10, 6-((benzo[d]oxazol-2-ylmethyl)thio)-1-cyclopropyl-1,5-dihydro-4H-pyrazolo[3,4-d]pyrimidin-4-one]: 220 nM. Same read-out and setting: then `CC(C)n1ncc2c(=O)[nH]c(SCc3nc4ccccc4o3)nc21` [Example 11, 6-((benzo[d]oxazol-2-ylmethyl)thio)-1-isopropyl-1,5-dihydro-4H-pyrazolo[3,4-d]pyrimidin-4-one], with 6 nM; and `O=c1[nH]c(SCc2nc3ccccc3o2)nc2c1cnn2C1CCCCC1` [Example 12, 6-((benzo[d]oxazol-2-ylmethyl)thio)-1-cyclohexyl-1,5-dihydro-4H-pyrazolol[3,4-d]pyrimidin-4-one], with 4 nM. Turning to `Cc1ccc2nc(CSc3nc4c(cnn4C4CCC(F)(F)CC4)c(=O)[nH]3)oc2c1` [Example 13, 6-(((6-methylbenzo[d]oxazol-2-yl)methyl)thio)-1-(4,4-difluorocyclohexyl)-1,5-dihydro-4H-pyrazolo[3,4-d]pyrimidin-4-one], the IC50 was found to be 12 nM.

As to `Cc1ccc2nc(CSc3nc4c(cnn4C4CCOCC4)c(=O)[nH]3)oc2c1` [Example 14, 6-(((6-methylbenzo[d]oxazol-2-yl)methyl)thio)-1-(tetrahydro-2H-pyran-4-yl)-1,5-dihydro-4H-pyrazolo[3,4-d]pyrimidin-4-one], the IC50 was determined as 4 nM.

Compound `Cc1ccc2nc(CSc3nc4c(cnn4C4CCSCC4)c(=O)[nH]3)oc2c1` [Example 15, 6-(((6-methylbenzo[d]oxazol-2-yl)methyl)thio)-1-(tetrahydro-2H-thiopyran-4-yl)-1,5-dihydro-4H-pyrazolo[3,4-d]pyrimidin-4-one] returned an IC50 of 10 nM. The same measure, in the same setting: the same measure for `Cc1ccc2nc(CSc3nc4c(cnn4C4CCCCC4)c(=O)[nH]3)oc2c1` [Example 16, 6-(((6-methylbenzo[d]oxazol-2-yl)methyl)thio)-1-cyclohexyl-1,5-dihydro-4H-pyrazolo[3,4-d]pyrimidin-4-one]: 6 nM. On the same count and under the same terms, the same measure for `Cc1ccc2nc(CSc3nc4c(cnn4C4CC4)c(=O)[nH]3)oc2c1` [Example 17, 6-(((6-methylbenzo[d]oxazol-2-yl)methyl)thio)-1-cyclopropyl-1,5-dihydro-4H-pyrazolo[3,4-d]pyrimidin-4-one]: 190 nM. Compound `Cc1ccc2nc(CSc3nc4c(cnn4C(C)C)c(=O)[nH]3)oc2c1` [Example 18, 6-(((6-methylbenzo[d]oxazol-2-yl)methyl)thio)-1-isopropyl-1,5-dihydro-4H-pyrazolo[3,4-d]pyrimidin-4-one] showed an IC50 of 4 nM. The same measure, in the same setting: the same measure for `CC(Sc1nc2c(cnn2-c2ccccc2)c(=O)[nH]1)c1nc2ccccc2o1` (centres unmarked) [Example 19, 6-((1-(benzo[d]oxazol-2-yl)ethyl)thio)-1-phenyl-1,5-dihydro-4H-pyrazolo[3,4-d]pyrimidin-4-one]: 28 nM. In turn, `CC(Sc1nc2c(cnn2C2CCC(F)(F)CC2)c(=O)[nH]1)c1nc2ccccc2o1` (centres unmarked) [Example 20] returned an IC50 of 6 nM. `CC(Sc1nc2c(cnn2C2CCOCC2)c(=O)[nH]1)c1nc2ccccc2o1` (centres unmarked) [Example 21] displayed an IC50 of 3 nM. `Cc1ccc2nc(C(C)Sc3nc4c(cnn4C4CCC(F)(F)CC4)c(=O)[nH]3)oc2c1` (centres unmarked) [Example 22, 1-(4,4-difluorocyclohexyl)-6-((1-(6-methylbenzo[d]oxazol-2-yl)ethyl)thio)-1,5-dihydro-4H-pyrazolo[3,4-d]pyrimidin-4-one]: the IC50 amounted to 6 nM. The same measure, in the same setting: the same measure for `Cc1ccc2nc(C(C)Sc3nc4c(cnn4C4CCOCC4)c(=O)[nH]3)oc2c1` (centres unmarked) [Example 23, 6-((1-(6-methylbenzo[d]oxazol-2-yl)ethyl)thio)-1-(tetrahydro-2H-pyran-4-yl)-1,5-dihydro-4H-pyrazolo[3,4-d]pyrimidin-4-one]: 2 nM. In the case of `Cc1ccc2nc(C(C)Sc3nc4c(cnn4C4CCSCC4)c(=O)[nH]3)oc2c1` (centres unmarked) [Example 24, 6-((1-(6-methylbenzo[d]oxazol-2-yl)ethyl)thio)-1-(tetrahydro-2H-thiopyran-4-yl)-1,5-dihydro-4H-pyrazolo[3,4-d]pyrimidin-4-one], the IC50 is 5 nM. Still for that read-out and setting: then `Cc1cccc2oc(CSc3nc4c(cnn4-c4ccccc4)c(=O)[nH]3)nc12` [Example 26, 6-(((4-methylbenzo[d]oxazol-2-yl)methyl)thio)-1-phenyl-1,5-dihydro-4H-pyrazole[3,4-d]pyrimidin-4-one], with 140 nM. Compound `CC(C)(C)c1ccc2oc(CSc3nc4c(cnn4-c4ccccc4)c(=O)[nH]3)nc2c1` [Example 27, 6-(((5-(tert-butyl)benzo[d]oxazol-2-yl)methyl)thio)-1-phenyl-1,5-dihydro-4H-pyrazolo[3,4-d]pyrimidin-4-one] had an IC50 of 6630 nM. Still for that read-out and setting: then `O=c1[nH]c(SCc2nc3cc([N+](=O)[O-])ccc3o2)nc2c1cnn2-c1ccccc1` [Example 29, 6-(((5-nitrobenzo[d]oxazol-2-yl)methyl)thio)-1-phenyl-1,5-dihydro-4H-pyrazolo[3,4-d]pyrimidin-4-one], with 2400 nM.

Values taken from patent publication US12195469B2, “Compounds having PDE9A inhibitory activity, and pharmaceutical uses thereof” (KOREA RESEARCH INSTITUTE OF CHEMICAL TECHNOLOGY, priority 2018, dated 2025).
